Experimental data: the supplement of paper PMC11061612

Experiments:
Assay in all cases: combination Emax (second highest fraction inhibited in the dose matrix, 72 h); higher = more inhibition; extreme values may be limits of the assay
[1] = system: NKM-1 (Acute Myeloid Leukemia)
Method in brief: (§1)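 Cell lines grown in DMEM/F12 or RPMI with 10% FBS were plated in 1536-well plates and held 24 hours at 37°C, 5% CO2 before 72 hours of exposure to two-drug dose matrices, with DMSO typically at 0.2%. CellTiter-Glo 2.0 luminescence gave viability, which was converted to inhibition. Vehicle wells were set to 0 and blank wells to 1. Combination Emax is the second-highest inhibition in the matrix, and Bliss excess is the observed combination effect minus the expected EA + EB − EA·EB, where EA and EB are the single-agent effects.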

[2] = system: FLO-1 (Esophageal Adenocarcinoma)
Method in brief: as §1

786-0 (Kidney Carcinoma) = system: 786-0 (Kidney Carcinoma)
Method in brief: as §1

[3] = system: RMG-I (Ovarian Carcinoma)
Method in brief: as §1

SMILES | combination Emax [1] | combination Emax [2] | combination Emax (786-0 (Kidney Carcinoma)) | combination Emax [3]
Cc1c2c(nn1C)CSCc1cc(n(C)n1)CSc1cc(c3ccccc3c1)OCCCc1c(C(=O)O)n(C)c3c-2c(Cl)ccc13 [AZD5991] + C[C@@H]1COCCN1C2=NC(=NC(=C2)C3(CC3)[S@](=N)(=O)C)C4=C5C=CNC5=NC=C4 [AZD6738] (first compound max 1 µM, 7x7, partner max 10 µM) | 0.995 | 0.686 | 0.748 | 0.544
Cc1c2c(nn1C)CSCc1cc(n(C)n1)CSc1cc(c3ccccc3c1)OCCCc1c(C(=O)O)n(C)c3c-2c(Cl)ccc13 [AZD5991] + C[C@@H](Nc1cc(F)cc(F)c1)c1cc(C(=O)N(C)C)cc2c(=O)cc(N3CCOCC3)oc12 [AZD8186] (first compound max 1 µM, 7x7, partner max 3 µM) | 1 | 0.48 | 0.374 | 0.426
Cc1c2c(nn1C)CSCc1cc(n(C)n1)CSc1cc(c3ccccc3c1)OCCCc1c(C(=O)O)n(C)c3c-2c(Cl)ccc13 [AZD5991] + Cc1cc2ncnn2cc1Nc1ncc2c(n1)n(C1CCOCC1)c(=O)n2C [AZD7648] (first compound max 1 µM, 7x7, partner max 10 µM) | 0.984 | 0.489 | 0.251 | 0.344
Cc1c2c(nn1C)CSCc1cc(n(C)n1)CSc1cc(c3ccccc3c1)OCCCc1c(C(=O)O)n(C)c3c-2c(Cl)ccc13 [AZD5991] + Cn1cnc2c(F)c(Nc3ccc(Br)cc3Cl)c(C(=O)NOCCO)cc21 [Selumetinib] (first compound max 1 µM, 7x7, partner max 3 µM) | 0.989 | 0.386 | 0.251 | 0.41
C[C@@H]1COCCN1c1cc(C2([S@](C)(=N)=O)CC2)nc(-c2ccnc3[nH]ccc23)n1 [AZD6738] + O=C(c1cc(Cc2n[nH]c(=O)c3ccccc23)ccc1F)N1CCN(C(=O)C2CC2)CC1 [Olaparib] (first compound max 10 µM, 7x7, partner max 10 µM) | 0.902 | 0.75 | 0.679 | 0.414
Cc1cc2ncnn2cc1Nc1ncc2c(n1)n(C1CCOCC1)c(=O)n2C [AZD7648] + C=CCn1c(=O)c2cnc(Nc3ccc(N4CCN(C)CC4)cc3)nc2n1-c1cccc(C(C)(C)O)n1 [AZD1775] (first compound max 10 µM, partner max 1 µM) | 0.884 | 0.802 | 0.595 | 0.471
Cc1cc2ncnn2cc1Nc1ncc2c(n1)n(C1CCOCC1)c(=O)n2C [AZD7648] + CCN(CCO)CCCOc1ccc2c(Nc3cc(CC(=O)Nc4cccc(F)c4)[nH]n3)ncnc2c1 [AZD2811] (first compound max 10 µM, 7x7, partner max 1 µM) | 0.605 | 0.406 | 0.215 | 0.466
Cc1cc2ncnn2cc1Nc1ncc2c(n1)n(C1CCOCC1)c(=O)n2C [AZD7648] + CN(C)CCCOc1ccc(-c2ccc3ncc4c(c3c2)n(C2CCOCC2)c(=O)n4C)cn1 [AZD0156] (first compound max 10 µM, 7x7, partner max 1 µM) | 0.384 | 0.358 | 0.18 | 0.431
Cc1cc2ncnn2cc1Nc1ncc2c(n1)n(C1CCOCC1)c(=O)n2C [AZD7648] + C[C@@H]1COCCN1C2=NC(=NC(=C2)C3(CC3)[S@](=N)(=O)C)C4=C5C=CNC5=NC=C4 [AZD6738] (first compound max 10 µM, 7x7, partner max 10 µM) | 0.839 | 0.668 | 0.694 | 0.53
Cc1cc2ncnn2cc1Nc1ncc2c(n1)n(C1CCOCC1)c(=O)n2C [AZD7648] + O=C(c1cc(Cc2n[nH]c(=O)c3ccccc23)ccc1F)N1CCN(C(=O)C2CC2)CC1 [Olaparib] (first compound max 10 µM, 7x7, partner max 10 µM) | 0.73 | 0.208 | 0.101 | 0.192
COc1cccc2c1C(=O)c1c(O)c3c(c(O)c1C2=O)C[C@@](O)(C(=O)CO)C[C@@H]3O[C@H]1C[C@H](N)[C@H](O)[C@H](C)O1 [Doxorubicin] + Cc1cc2ncnn2cc1Nc1ncc2c(n1)n(C1CCOCC1)c(=O)n2C [AZD7648] (first compound max 1 µM, 7x7, partner max 10 µM) | 0.988 | 0.927 | 0.82 | 0.599
COc1cccc(OCCCN)c1-c1cc(Nc2cnc(C#N)cn2)n[nH]1 [Prexasertib] + C=CCn1c(=O)c2cnc(Nc3ccc(N4CCN(C)CC4)cc3)nc2n1-c1cccc(C(C)(C)O)n1 [AZD1775] (first compound max 1 µM, partner max 1 µM) | 0.956 | 0.94 | 0.957 | 0.727
COc1cccc(OCCCN)c1-c1cc(Nc2cnc(C#N)cn2)n[nH]1 [Prexasertib] + CCc1c2c(nc3ccc(O)cc13)-c1cc3c(c(=O)n1C2)COC(=O)[C@]3(O)CC [SN-38] (first compound max 1 µM, 7x7, partner max 0.3 µM) | 0.938 | 0.918 | 0.938 | 0.505
COc1cccc(OCCCN)c1-c1cc(Nc2cnc(C#N)cn2)n[nH]1 [Prexasertib] + CN(C)CCCOc1ccc(-c2ccc3ncc4c(c3c2)n(C2CCOCC2)c(=O)n4C)cn1 [AZD0156] (first compound max 1 µM, 7x7, partner max 1 µM) | 0.956 | 0.724 | 0.861 | 0.698
COc1cccc(OCCCN)c1-c1cc(Nc2cnc(C#N)cn2)n[nH]1 [Prexasertib] + C[C@@H]1COCCN1C2=NC(=NC(=C2)C3(CC3)[S@](=N)(=O)C)C4=C5C=CNC5=NC=C4 [AZD6738] (first compound max 1 µM, 7x7, partner max 10 µM) | 0.938 | 0.763 | 0.901 | 0.629
COc1cccc(OCCCN)c1-c1cc(Nc2cnc(C#N)cn2)n[nH]1 [Prexasertib] + Cc1cc2ncnn2cc1Nc1ncc2c(n1)n(C1CCOCC1)c(=O)n2C [AZD7648] (first compound max 1 µM, 7x7, partner max 10 µM) | 0.965 | 0.703 | 0.896 | 0.678
COc1cccc(OCCCN)c1-c1cc(Nc2cnc(C#N)cn2)n[nH]1 [Prexasertib] + O=C(c1cc(Cc2n[nH]c(=O)c3ccccc23)ccc1F)N1CCN(C(=O)C2CC2)CC1 [Olaparib] (first compound max 1 µM, 7x7, partner max 10 µM) | 0.902 | 0.677 | 0.869 | 0.515
COc1cc2c(cc1OCCCCCOc1cc3c(cc1OC)C(=O)N1C=C(C)C[C@H]1C=N3)N=C[C@@H]1CC(C)=CN1C2=O [SG3199] + O=C(c1cc(Cc2n[nH]c(=O)c3ccccc23)ccc1F)N1CCN(C(=O)C2CC2)CC1 [Olaparib] (first compound max 0.001 µM, 7x7, partner max 10 µM) | 0.663 | 0.186 | 0.0509 | 0.114
CCc1c2c(nc3ccc(O)cc13)-c1cc3c(c(=O)n1C2)COC(=O)[C@]3(O)CC [SN-38] + CN(C)CCCOc1ccc(-c2ccc3ncc4c(c3c2)n(C2CCOCC2)c(=O)n4C)cn1 [AZD0156] (first compound max 0.3 µM, 7x7, partner max 1 µM) | 0.973 | 0.664 | 0.884 | 0.446
CCc1c2c(nc3ccc(O)cc13)-c1cc3c(c(=O)n1C2)COC(=O)[C@]3(O)CC [SN-38] + O=C(c1cc(Cc2n[nH]c(=O)c3ccccc23)ccc1F)N1CCN(C(=O)C2CC2)CC1 [Olaparib] (first compound max 0.3 µM, 7x7, partner max 10 µM) | 0.987 | 0.479 | 0.931 | 0.421
CC(=O)Nc1cccc(-n2c(=O)n(C3CC3)c(=O)c3c(Nc4ccc(I)cc4F)n(C)c(=O)c(C)c32)c1 [Trametinib] + Cc1nc(-c2cn3c(n2)-c2ccc(-c4cnn(C(C)(C)C(N)=O)c4)cc2OCC3)n(C(C)C)n1 [Taselisib] (first compound max 1 µM, 7x7, partner max 10 µM) | 1 | 0.665 | 0.613 | 0.485
CC1(C)CCC(CN2CCN(c3ccc(C(=O)NS(=O)(=O)c4ccc(NCC5CCOCC5)c([N+](=O)[O-])c4)c(Oc4cnc5[nH]ccc5c4)c3)CC2)=C(c2ccc(Cl)cc2)C1 [Venetoclax] + C1CN(CCC1(C(=O)N[C@@H](CCO)C2=CC=C(C=C2)Cl)N)C3=NC=NC4=C3C=CN4 [Capivasertib] (first compound max 1 µM, 7x7, partner max 3 µM) | 1 | 0.192 | 0.37 | 0.242
CC1(C)CCC(CN2CCN(c3ccc(C(=O)NS(=O)(=O)c4ccc(NCC5CCOCC5)c([N+](=O)[O-])c4)c(Oc4cnc5[nH]ccc5c4)c3)CC2)=C(c2ccc(Cl)cc2)C1 [Venetoclax] + C=CCn1c(=O)c2cnc(Nc3ccc(N4CCN(C)CC4)cc3)nc2n1-c1cccc(C(C)(C)O)n1 [AZD1775] (first compound max 1 µM, partner max 1 µM) | 0.995 | 0.84 | 0.582 | 0.57
CC1(C)CCC(CN2CCN(c3ccc(C(=O)NS(=O)(=O)c4ccc(NCC5CCOCC5)c([N+](=O)[O-])c4)c(Oc4cnc5[nH]ccc5c4)c3)CC2)=C(c2ccc(Cl)cc2)C1 [Venetoclax] + CCN(CCO)CCCOc1ccc2c(Nc3cc(CC(=O)Nc4cccc(F)c4)[nH]n3)ncnc2c1 [AZD2811] (first compound max 1 µM, 7x7, partner max 1 µM) | 1 | 0.359 | 0.159 | 0.302
CC1(C)CCC(CN2CCN(c3ccc(C(=O)NS(=O)(=O)c4ccc(NCC5CCOCC5)c([N+](=O)[O-])c4)c(Oc4cnc5[nH]ccc5c4)c3)CC2)=C(c2ccc(Cl)cc2)C1 [Venetoclax] + CN(C)CCCOc1ccc(-c2ccc3ncc4c(c3c2)n(C2CCOCC2)c(=O)n4C)cn1 [AZD0156] (first compound max 1 µM, 7x7, partner max 1 µM) | 0.959 | 0.339 | 0.195 | 0.348
CC1(C)CCC(CN2CCN(c3ccc(C(=O)NS(=O)(=O)c4ccc(NCC5CCOCC5)c([N+](=O)[O-])c4)c(Oc4cnc5[nH]ccc5c4)c3)CC2)=C(c2ccc(Cl)cc2)C1 [Venetoclax] + COc1cc(Nc2ncc3c(n2)-c2ccc(Cl)cc2C(c2c(F)cccc2OC)=NC3)ccc1C(=O)O [Alisertib] (first compound max 1 µM, 7x7, partner max 10 µM) | 0.98 | 0.514 | 0.37 | 0.371
